Data published in article PMC12677599 (Advanced Science, 2025).
Read-outs that look alike come from different tables or passages of the source. Where a SMILES comes first, the peptide text is derived from it. [ ]: non-standard residue; d: D form. The star is where a group is joined. PEG4 = NCCOCCOCCOCCOCCC(=O)O; Piperidide = C1CCN(*)CC1

Key:
H838 cell line = format: cell-based; details: 24 h
Protocol: (§1) MTT assay was conducted as previously described.^[ [44] ^] Tumor cell lines (NCI‐H460, NCI‐H838, HT‐1080, MCF‐7, PC‐3, U‐251‐MG, and U‐87 MG) were seeded in 96‐well plates at a density of 8000 cells per well in a volume of 100 µL and cultured for 24 h. Normal cell lines (HaCaT, HMEC‐1, MRC‐5, and HEK‐293) were seeded in 96‐well plates at a density of 10 000 cells per well in a volume of 100 µL and cultured for 48 h. After that, only tumor cell lines were starved with 100 µL of SFM for a further 4–6 h. Subsequently, cells were treated with 100 µL of compound solutions with different concentrations for 24 h. Cells treated with SFM and 0.5% DMSO in SFM served as blank control and growth control, respectively. Ten µL of MTT solution (5 mg mL^−1) was added to each well, followed by an additional incubation period of 2 h for tumor cells and 4 h for normal cells. Finally, the solvent in each well was swapped with 100 µL of DMSO to dissolve the formazan crystals. The absorbance was measured by the plate reader at 570 nm.
(§2) The cell viability was calculated (1) Cellviability%=ODSamplegroup−ODBlank/ODGrowthgroup−ODBlank×100%

HMEC-1 normal cell line = format: cell-based; details: 24 h
Protocol: as §1, §2

HT-1080 cell line = format: cell-based; details: 24 h
Protocol: as §1, §2

HaCaT normal cell line = format: cell-based; details: 24 h
Protocol: as §1, §2

MRC-5 normal cell line = format: cell-based; details: 24 h
Protocol: as §1, §2

HEK-293 normal cell line = assay: cells; format: cell-based; details: 24 h
Protocol: as §1, §2

erythrocytes = format: cell-based; details: red cells of horse, 2 h
Protocol: Defibrinated horse blood (1 mL) was washed 3 times with 0.9% NaCl solution to remove plasma and then resuspended in 20 mL of 0.9% NaCl solution to obtain a red blood cell (RBC) suspension. Aliquots of the RBC suspension (100 µL) were incubated with 100 µL of compound solutions at concentrations ranging from 100 to 1.5625 µM (twofold serial dilution) for 2 h at 37 °C. RBCs treated with 0.9% NaCl solution and 1% Triton X‐100 solution served as blank and positive controls, respectively. Subsequently, the samples were centrifuged at 900 × g for 10 min, and the absorbance of the supernatant was measured at 570 nm.
The hemolysis ratio was calculated as (2) Hemolysis%=ODSamplegroup−ODBlank/ODPositivegroup−ODBlank×100%

H460 cell line [1] = format: cell-based; details: 24 h
Protocol: as §1
The antimicrobial stability evaluation was determined in the presence of physiological concentrations of serum. Twenty five µL of compound solutions with the concentration of 3 mM and 25 µL of human serum were mixed. The mixture was incubated for 0, 2, 4, 6, 12, 24 h at 37 °C and then incubated for 15 min at 60 °C to inactivate the enzymes. […]

[2] = tested on: 5-Fluorouracil-resistance H460 cell line; format: cell-based; details: 24 h
Protocol: as §1
(§3) Wild type H460 cells were cultured in a T‐75 flask and exposed to 30 µM of cisplatin. Cells were passed when the confluency reached 90%. The IC50 value of cisplatin on this cell line was evaluated every two passages. After the IC50 value was higher than 500 µM, the cultured medium was changed to normal CGM, and the cell line was cultured for another three passages. The IC50 value was evaluated again to make sure the resistance was stable. The other three resistance cell lines establishment process was similar. […] Parental NCI‐H460 cells were exposed to 10 µM 5‐fluorouracil, 2.5 µM paclitaxel, or 2.5 µM etoposide to generate 5‐fluorouracil‐resistant, paclitaxel‐resistant, and etoposide‐resistant cell lines, respectively.

[3] = tested on: Cisplatin-resistance H460 cell line; format: cell-based; details: 24 h
Protocol: as §1, §3

[4] = tested on: Etoposide-resistance (DR-EPT) H460 cell line; format: cell-based; details: 24 h
Protocol: as §1, §3

[5] = tested on: Paclitaxel-resistance (DR-PTX) H460 cell line; format: cell-based; details: 24 h
Protocol: as §1, §3

H460 cell line [6] = assay: cells; format: cell-based; details: 24 h
Protocol: as §1, §2

[7] = tested on: matrix-metalloproteinase (MMP); assay: MMP cleavage detection in H460 condition medium; format: in vitro ADME; details: 50 µM in condition or control medium, HPLC and MS, n = 2
Protocol: NCI‐H460 cells were seeded in 48‐well plates at a density of 24 000 cells per well in a volume of 300 µL and cultured for 24 h. Afterward, 300 µL of SFM was added to each well followed by a 10 h incubation. Next, the supernatant of each well was transferred to 1.5 mL tubes. The supernatant of control group was incubated at 60 °C for 30 min (control medium) while the supernatant of dosing group (condition medium) had no incubation. […] Last, 150 µL of samples were analyzed by analytical HPLC and ESI‐MS. HPLC condition: gradient: 100% solution A from 0 to 5 min and 100% solution A to 0% solution A from 5 to 65 min; flow rate: 1 mL min^−1; detector wavelength: 214 nm. Each sample had two replicates.

[8] = Compound remaining evaluation in human serum; format: in vitro ADME; details: 50% human serum (50 µL 3 mM compound + 50 µL serum), 37 °C, 24 h, ethanol precipitation, analytical HPLC 214 nm peak area vs 0 h, n = 2; read-out: remaining ratio in human serum after 24 h
Protocol: Compound solutions (50 µL, 3 mM) were mixed with human serum (50 µL) and incubated for 0, 2, 4, 6, 12, and 24 h at 37 °C. Ethanol (250 µL) was added to precipitate serum proteins, and the samples were centrifuged at 14 000 × g for 20 min at 4 °C. Subsequently, 150 µL of supernatant of each sample was analyzed with analytical HPLC and ESI‐MS/MS. HPLC condition: gradient: 100% solution A to 0% solution A from 0 to 60 min; flow rate: 1 mL min^−1; detector wavelength: 214 nm. Each sample had two replicates.
The compound remaining ratio was calculated as (7) Compoundremaining%=CompoundPeakAreanotat0h/CompoundPeakAreaat0h×100%

[9] = tested on: Galleria mellonella larvae; assay: In vivo safety evaluation in G. mellonella larvae
Protocol: G. mellonella larvae (Livefoods Direct Ltd., Yorkshire, UK) were used to assess the in vivo safety of peptides. Experiments were conducted on larvae (250 ± 25 mg) incubated at 37 °C. Ten µL of compound 270 solutions with the final concentrations of 50, 80, and 120 µM were injected into the hemolymph via the second pair of prolegs (counting from the head). Control groups were injected with an equal volume of PBS. Larval survival and body weight were monitored every 1 day for a total of 5 days.

CC[C@H](C)[C@H](NC(=O)[C@H](CCCCN)NC(=O)[C@@H]1CCCN1C(=O)[C@H](CC(C)C)NC(=O)[C@@H](NC(=O)[C@H](CO)NC(=O)[C@H](CCC(=O)N1CCCCC1)NC(=O)[C@H](CC(C)C)NC(=O)[C@H](CC(=O)O)NC(=O)[C@H](CC(=O)O)NC(=O)[C@H](Cc1ccccc1)NC(=O)[C@@H](NC(=O)[C@H](CCCCN)NC(=O)[C@@H]1CCCN1C(=O)[C@H](Cc1ccccc1)NC(=O)[C@@H](N)Cc1ccccc1)[C@@H](C)CC)[C@@H](C)CC)C(=O)N[C@@H](CC(C)C)C(N)=O [174-3] (H-FFPKIFDDLE(Piperidide)SILPKIL-NH2)
IC50 (H838 cell line): 39.5 µM
IC50 (HMEC-1 normal cell line): 52.9 ± 7.31 µM
IC50 (HT-1080 cell line): 57.6 ± 8.46 µM
IC50 (HaCaT normal cell line): 87 µM
IC50 (MRC-5 normal cell line): 95.8 µM
IC50 (HEK-293 normal cell line): 32.6 µM
HC10 (concentration causing 10% of erythrocytes lysis) (erythrocytes): 51.52 µM
IC50 (H460 cell line [1]): 23.7 ± 1.03 µM
IC50 [2]: 28.9 ± 3.53 µM
IC50 [3]: 29.2 ± 2.29 µM
IC50 [4]: 17.7 ± 2.86 µM
IC50 [5]: 24.2 ± 2.13 µM

CC[C@H](C)[C@H](NC(=O)[C@H](CCCCN)NC(=O)[C@@H]1CCCN1C(=O)[C@H](CC(C)C)NC(=O)[C@@H](NC(=O)[C@H](CO)NC(=O)[C@H](CCC(=O)N1CCCCC1)NC(=O)[C@H](CC(C)C)NC(=O)[C@H](CC(=O)O)NC(=O)[C@H](CC(=O)O)NC(=O)[C@H](Cc1ccccc1)NC(=O)[C@@H](NC(=O)[C@H](CCCCN)NC(=O)[C@@H]1CCCN1C(=O)[C@H](Cc1ccccc1)NC(=O)[C@@H](N)Cc1ccccc1)[C@@H](C)CC)[C@@H](C)CC)C(=O)N[C@@H](CC(C)C)C(=O)NCC(=O)N1CCC[C@H]1C(=O)N[C@@H](CC(C)C)C(=O)NCC(=O)N[C@@H](CC(C)C)C(=O)N[C@@H](C)C(=O)NCC(=O)NCCOCCOCCOCCOCCC(=O)NCCOCCOCCOCCOCCC(=O)NCCOCCOCCOCCOCCC(=O)NCCOCCOCCOCCOCCC(N)=O [compound 209] (H-FFPKIFDDLE(Piperidide)SILPKILGPLGLAG[PEG4][PEG4][PEG4][PEG4]-NH2)
IC50 (H838 cell line): 84.5 ± 5.91 µM
IC50 (HMEC-1 normal cell line): > 100 µM
IC50 (HT-1080 cell line): 86.8 ± 49.1 µM
IC50 (HaCaT normal cell line): > 100 µM
IC50 (MRC-5 normal cell line): > 100 µM
IC50 (H460 cell line [6]): 53.4 µM
IC50 (HEK-293 normal cell line): 98.6 µM
IC50 [2]: 84.5 ± 4.55 µM
IC50 [3]: 94.3 µM
IC50 [4]: > 100 µM
IC50 [5]: 97.8 µM
MMP-cleaved product detection / integrity in H460 medium [7]: remained intact

CC[C@H](C)[C@H](NC(=O)[C@H](CCCCN)NC(=O)[C@@H]1CCCN1C(=O)[C@H](CC(C)C)NC(=O)[C@@H](NC(=O)[C@H](CO)NC(=O)[C@H](CCC(=O)N1CCCCC1)NC(=O)[C@H](CC(C)C)NC(=O)[C@H](CC(=O)O)NC(=O)[C@H](CC(=O)O)NC(=O)[C@H](Cc1ccccc1)NC(=O)[C@@H](NC(=O)[C@H](CCCCN)NC(=O)[C@@H]1CCCN1C(=O)[C@H](Cc1ccccc1)NC(=O)[C@H](Cc1ccccc1)NC(=O)[C@H](CCCCN)NC(=O)[C@H](C)N)[C@@H](C)CC)[C@@H](C)CC)C(=O)N[C@@H](CC(C)C)C(=O)NCC(=O)N1CCC[C@H]1C(=O)N[C@@H](CC(C)C)C(=O)NCC(=O)N[C@@H](CC(C)C)C(=O)N[C@@H](C)C(=O)NCC(=O)NCCOCCOCCOCCOCCC(=O)NCCOCCOCCOCCOCCC(=O)NCCOCCOCCOCCOCCC(=O)NCCOCCOCCOCCOCCC(=O)NCCOCCOCCOCCOCCC(=O)NCCOCCOCCOCCOCCC(N)=O [compound 270] (H-AKFFPKIFDDLE(Piperidide)SILPKILGPLGLAG[PEG4][PEG4][PEG4][PEG4][PEG4][PEG4]-NH2)
IC50 (HMEC-1 normal cell line): > 100 µM
IC50 (HaCaT normal cell line): > 100 µM
IC50 (MRC-5 normal cell line): > 100 µM
IC95 value, H460 (H460 cell line [6]): ≈ 55 µM
IC50 (HEK-293 normal cell line): > 100 µM
inhibition of HEK-293 cells at 100 µM (HEK-293 normal cell line; 100): 40%
HC10 (concentration causing 10% of erythrocytes lysis) (erythrocytes): >100 µM
IC50 (H460 cell line [1]): 53.6 ± 2.04 µM
IC50 [2]: 56.44 ± 0.25 µM
IC50 [3]: 54.7 ± 3.28 µM
IC50 [4]: 28.1 ± 1.42 µM
IC50 [5]: 35.3 ± 1.83 µM
remaining at 24 h, 1.5 mM [8]: ~100%
larval survival after 5 days, 50 µM ([9]; 10 µL injected into hemolymph, 50 µM, 37 °C, day 5): 77.8%
larval survival after 5 days, 80 µM ([9]; 10 µL injected into hemolymph, 80 µM, 37 °C, day 5): 88.9%
larval survival after 5 days, 120 µM ([9]; 10 µL injected into hemolymph, 120 µM, 37 °C, day 5): 77.8%
melanization of larvae ([9]; 50, 80 or 120 µM, 5 days): No melanization
